For experiment [1], the target named is T1, recombinant human AMPK complex 1 (containing α1β1γ1) (Homo sapiens, UniProt Q13131+Q9Y478).
T1 construct: made in house; host or cells: Spodoptera frugiperda Sf21 cells (baculovirus, triple infection)
As to the kind of experiment: In vitro AMPK activation assay (AMPKSAMSF), AMPK complex 1. In kind it is biochemical. The following applies: for Emax: 10-point titration data expressed as % maximum AMP activation; for EC50: human AMPK complex 1, inflection point reflecting 50% of the maximum activation. The protocol: (§1) AMPKSAMSF (In Vitro AMPK Activation Assay)
(§2) The recombinant human AMPK complex 1 (containing α1β1γ1) and complex 7 (containing α2β1γ1) were obtained from baculovirus expression system. Recombinant viruses were generated by cotransfection of AMPK/pBacPak9 clones with Baculogold baculovirus DNA (Pharmingen) in spodoptera frugiperda 21 cells according to the manufacturer's instructions. Each round of virus amplification was performed for 5 days in Grace's medium containing 10% serum. Virus that had been subjected to three rounds of amplification was used for all protein production procedures. To express the AMPK complex, sf21 cells were adapted to serum free medium (SF900 II, Invitrogen) by sequential dilution from serum containing stocks into SF900II medium and maintained in shaker flasks at 90 rpm at 27° C. The recombinant AMPK enzyme complex was produced by triple infection, one recombinant virus for each of the subunits, in sf21 cells under serum free conditions. Cells were infected in log phase, 1×10^6 cells/ml, at a multiplicity of infection of ˜5. Cells were harvested by centrifugation at 10,000×g for 15 minutes after 72 hours of infection with viruses. The insect cell pellet from 2 liters of culture was resuspended in 50 ml lysis buffer (20 mM Tris-HCl, 50 mM NaCl, 50 mM NaF, 30 mM Na PPi, 0.25 M sucrose, 10 mM ZnCl2, 2 mM DTT, 0.4 mg/ml digitonin) and subjected to two cycles of freeze-thaw lysis in a dry-ice ethanol bath. Insoluble material was removed by centrifugation at 10,000×g and the supernatant was fractionated with use of polyethylene glycol (PEG). The protein fraction precipitating between 2.5 and 6% PEG was used for further purification using a Blue-Sepharose step (Zhou et al, J. Clin. Invest. 108, 1167-1174, 2001).
(§3) The in vitro AMPK activation assay is performed in a volume of 30 μl in a 384-well plate. Enzyme reactions were assembled in the microtiter plate by adding 15 μl of 2× enzyme in assay buffer (20 mM HEPES, pH 7.3, 5 mM MgCl2, 3 mM DTT, 0.01% Brij 35 and CamK Kinase, to activate AMPK) to wells which contained either DMSO or compound. The reaction was initiated with the addition of 15 μ12× substrate mixture containing 200 μM ATP, and 3.0 μM fluorescently labeled SAMS (5-FAM-HMRSAMSGLHLVKRR—COOH) in assay buffer. After 45-minute incubation at 25° C., the reaction was stopped by the addition of 70 μl stop buffer (100 mM HEPES, pH 7.3, 40 mM EDTA, 0.015% Brij 35). Phosphorylated 5-FAM SAMS product is assessed using a Caliper EZ Reader LabChip microfluidics reader. Product conversion is determined by calculating the peak heights of the substrate and product and reporting the product/(product+substrate) peak ratio. The 10-point titration data were expressed as % maximum AMP activation. The results were plotted using 4 parameter fit and the inflection point reflecting 50% of the maximum activation was reported as the EC50.
(§4) The compounds of present invention, including the compounds of Examples 1-142, were tested in the in vitro AMPK activation assay using recombinant human AMPK complex 1 (containing α1β1γ1) or AMPK complex 7 (containing α2β1γ1) and found to have increased activation of human AMPK complex 1 or complex 7 at concentrations of less than 50 μM.

Experiment [2] has as its target T2, recombinant human AMPK complex 7 (containing α2β1γ1) (Homo sapiens, UniProt P54646+Q9Y478).
T2 construct: made in house; host or cells: Spodoptera frugiperda Sf21 cells (baculovirus, triple infection)
As to the kind of experiment: In vitro AMPK activation assay (AMPKSAMSF), AMPK complex 7. In kind it is biochemical. The following applies: for Emax: 10-point titration data expressed as % maximum AMP activation; for EC50: human AMPK complex 7, inflection point reflecting 50% of the maximum activation. The protocol: as §1, §2, §3, §4

Experiment [3] relates to ob/ob and db/db mice. The following applies: following 8 weeks of administration; cited from earlier work.

T2 sequence (P54646 whole entry): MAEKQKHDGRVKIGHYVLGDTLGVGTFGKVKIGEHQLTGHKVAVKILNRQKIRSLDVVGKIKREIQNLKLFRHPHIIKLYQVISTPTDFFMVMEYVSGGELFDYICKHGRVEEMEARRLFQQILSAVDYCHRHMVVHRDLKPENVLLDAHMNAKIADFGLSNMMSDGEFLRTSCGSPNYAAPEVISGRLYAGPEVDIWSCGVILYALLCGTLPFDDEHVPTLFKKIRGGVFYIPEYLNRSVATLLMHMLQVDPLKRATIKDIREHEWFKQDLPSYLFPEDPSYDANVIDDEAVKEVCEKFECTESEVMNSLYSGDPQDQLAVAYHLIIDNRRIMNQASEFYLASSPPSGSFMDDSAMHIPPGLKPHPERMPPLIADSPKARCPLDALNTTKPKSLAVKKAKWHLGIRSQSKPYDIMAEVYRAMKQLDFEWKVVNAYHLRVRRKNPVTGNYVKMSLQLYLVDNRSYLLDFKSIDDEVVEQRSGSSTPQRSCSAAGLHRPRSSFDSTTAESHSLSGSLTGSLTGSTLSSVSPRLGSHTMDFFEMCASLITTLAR
T2 sequence (Q9Y478 whole entry): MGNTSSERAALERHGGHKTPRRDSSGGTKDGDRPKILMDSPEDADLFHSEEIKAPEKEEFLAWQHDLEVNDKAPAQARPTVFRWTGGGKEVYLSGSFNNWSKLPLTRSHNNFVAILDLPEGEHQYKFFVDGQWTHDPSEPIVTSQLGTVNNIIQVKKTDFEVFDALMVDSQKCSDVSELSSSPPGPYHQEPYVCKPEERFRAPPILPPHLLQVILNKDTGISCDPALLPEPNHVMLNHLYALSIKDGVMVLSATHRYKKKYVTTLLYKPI
T2 sequence (P54619 whole entry partner): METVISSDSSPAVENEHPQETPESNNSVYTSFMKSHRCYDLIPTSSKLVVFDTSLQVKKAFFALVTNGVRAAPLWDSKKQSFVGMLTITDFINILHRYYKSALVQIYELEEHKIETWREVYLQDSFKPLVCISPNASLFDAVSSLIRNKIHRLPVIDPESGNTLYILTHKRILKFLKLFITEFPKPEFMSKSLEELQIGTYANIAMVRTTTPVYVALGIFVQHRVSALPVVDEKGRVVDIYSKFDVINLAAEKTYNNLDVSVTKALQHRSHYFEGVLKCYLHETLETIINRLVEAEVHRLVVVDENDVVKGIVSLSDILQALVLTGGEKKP
T1 sequence (Q13131 whole entry): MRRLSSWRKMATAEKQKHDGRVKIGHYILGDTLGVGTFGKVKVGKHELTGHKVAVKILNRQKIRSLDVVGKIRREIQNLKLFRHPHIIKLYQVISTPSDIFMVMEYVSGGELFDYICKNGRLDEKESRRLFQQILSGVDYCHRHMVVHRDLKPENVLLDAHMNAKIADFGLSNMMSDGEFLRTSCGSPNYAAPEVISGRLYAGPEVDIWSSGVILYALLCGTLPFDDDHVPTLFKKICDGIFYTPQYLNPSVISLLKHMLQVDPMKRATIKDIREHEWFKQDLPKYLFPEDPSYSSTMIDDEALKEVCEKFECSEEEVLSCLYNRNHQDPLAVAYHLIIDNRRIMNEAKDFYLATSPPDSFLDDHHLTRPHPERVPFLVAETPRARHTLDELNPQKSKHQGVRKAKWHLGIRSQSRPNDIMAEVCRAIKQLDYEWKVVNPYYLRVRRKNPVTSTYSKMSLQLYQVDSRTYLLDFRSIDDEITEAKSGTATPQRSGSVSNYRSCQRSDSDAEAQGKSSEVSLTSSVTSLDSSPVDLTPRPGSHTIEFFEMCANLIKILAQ
T1 sequence (Q9Y478 whole entry): as the sequence (Q9Y478 whole entry) above
T1 sequence (P54619 whole entry partner): as the sequence (P54619 whole entry partner) above

As to `Cc1ccc(Cc2cc3nc(-c4ccc(C5(CO)CC5)cc4)c(Cl)cc3[nH]2)cc1C(=O)O` [Example 18, 5-((6-chloro-5-(4-(1-(hydroxymethyl)cyclopropyl)phenyl)-1H-pyrrolo[3,2-b]pyridin-2-yl)methyl)-2-methylbenzoic acid], in experiment [1], the Emax (as a rule, the maximal effect, on the per cent scale that the assay sets) is 573% and the 50% effective concentration (EC50) (commonly the concentration giving half of the maximal effect) came to 4 nM. Consider `O[C@@H]1CO[C@H]2[C@@H]1OC[C@H]2Oc1cc2nc(-c3ccc4c(c3)OCO4)c(Cl)cc2[nH]1` [Example 76], for which, in experiment [2], the Emax was found to be 446% and the EC50 was < 3 nM. In the case of `Cn1ccc2cc(-c3nc4cc(O[C@@H]5CO[C@H]6[C@@H]5OC[C@H]6O)[nH]c4cc3Cl)ccc21` [Example 77], in experiment [2], the maximum response (Emax) worked out at 472% and the 50% effective concentration (EC50) is < 3 nM. On to `Cc1ccc(Cc2cc3cc(-c4ccc(-c5ccncc5)cc4)c(Cl)cc3[nH]2)cc1C(=O)O` [Example 30, 5-{[6-chloro-5-(4-pyridin-4-ylphenyl)-1H-indol-2-yl]methyl}-2-methylbenzoic acid], for which, in experiment [1], the Emax was determined as 583% and the EC50 was found to be 15 nM. Consider `CCOc1ccc(-c2cc3cc(Cc4ccc(C)c(C(=O)O)c4)[nH]c3cc2Cl)c(F)c1` [Example 8, 5-((6-chloro-5-(4-ethoxy-2-fluorophenyl)-1H-indol-2-yl)methyl)-2-methylbenzoic acid], for which, in experiment [1], the maximal effect (Emax) was found to be 265% and the EC50 came to 493 nM. In the case of `Cc1ccc(Oc2cc3nc(-c4ccc(-c5ccccc5)cc4)c(F)cc3[nH]2)cc1C(=O)O` [Example 82], in experiment [2], the Emax stood at 239% and the EC50 came to 6 nM.

For `O[C@@H]1CO[C@H]2[C@@H]1OC[C@H]2Oc1cc2nc(-c3ccc(-c4ccccc4)cc3)c(Cl)cc2[nH]1` [Example 69], in experiment [2], the Emax amounted to 354% and the EC50 turned out to be 5 nM. For `Cc1ccc(Oc2cc3nc(-c4ccc(-c5ccccc5)cc4)c(Cl)cc3[nH]2)cc1C(=O)O` [Example 80], in that order: 230% and < 3 nM. With `OCC1(c2ccc(-c3nc4cc(O[C@@H]5CO[C@H]6[C@@H]5OC[C@H]6O)[nH]c4cc3F)cc2)CC1` [Example 72], in experiment [2], the Emax worked out at 530% and the EC50 was < 3 nM. For `CS(=O)(=O)c1ccc(-c2ccc(-c3cc4cc(CCCC(=O)O)[nH]c4cc3Cl)cc2)cc1` [Example 15], in experiment [1], the maximum response (Emax) was 370% and the EC50 stood at 24 nM. `CS(=O)(=O)c1ccc(-c2ccc(-c3nc4cc(CCCCC(=O)O)[nH]c4cc3Cl)cc2)cc1` [Example 23]: in experiment [1], the Emax amounted to 575% and the EC50 turned out to be 1 nM.

Consider `O[C@@H]1CO[C@H]2[C@@H]1OC[C@H]2Oc1cc2nc(-c3ccc(-c4ccc(-n5cncn5)cc4)cc3)c(Cl)cc2[nH]1` [Example 110], for which, in experiment [2], the maximum response (Emax) is 412% and the EC50 is < 1 nM. As to `Cc1ccc(Cc2cc3cc(-c4ccc(C5(CO)CC5)cc4)c(Cl)cc3[nH]2)cc1C(=O)O` [Example 6, 5-((6-chloro-5-(4-(1-(hydroxymethyl)cyclopropyl)phenyl)-1H-indol-2-yl)methyl)-2-methylbenzoic acid], in experiment [1], the Emax is 601% and the 50% effective concentration (EC50) was found to be 10 nM. In the case of `NC(=O)c1ncn([C@@H]2O[C@H](CO)[C@@H](O)[C@H]2O)c1N` [AICAR], the blood glucose reduction in experiment [3] is given as 35%.

As to `Cc1ccc(Cc2cc3cc(-c4ccc(N5CCCC5)cc4)c(Cl)cc3[nH]2)cc1C(=O)O` [Example 1, 5-((6-chloro-5-(4-(pyrrolidin-1-yl)phenyl)-1H-indol-2-yl)methyl)-2-methylbenzoic acid], in experiment [1], the Emax amounted to 581% and the EC50 is 37 nM. Take `OC[C@H]1OC[C@H](Oc2cc3nc(-c4ccc(-c5ccccc5)cc4)c(Cl)cc3[nH]2)C[C@@H]1O` [Example 121, (2R,3S,5R)-5-((5-([1,1′-biphenyl]-4-yl)-6-chloro-1H-pyrrolo[3,2-b]pyridin-2-yl)oxy)-2-(hydroxymethyl)tetrahydro-2H-pyran-3-ol]: in experiment [2], the Emax was found to be 213% and the EC50 was found to be 71 nM. For `OC[C@H]1OC[C@H](Oc2cc3nc(-c4ccc(C5(CO)CC5)cc4)c(Cl)cc3[nH]2)C[C@@H]1O` [Example 122], in that order: 384% and 4 nM. On to `Cc1ccc(Cc2cc3cc(-c4ccc(-c5ccc(S(C)(=O)=O)cc5)cc4)c(Cl)cc3[nH]2)cc1C(=O)O` [Example 3], for which, in experiment [1], the Emax worked out at 680% and the EC50 stood at 13 nM. As to `Oc1ccccc1-c1ccc(-c2nc3cc(O[C@@H]4CO[C@H]5[C@@H]4OC[C@H]5O)[nH]c3cc2Cl)cc1` [Example 107, (3R,3aR,6R,6aR)-6-((6-chloro-5-(2′-hydroxy-[1,1′-biphenyl]-4-yl)-1H-pyrrolo[3,2-b]pyridin-2-yl)oxy)hexahydrofuro[3,2-b]furan-3-ol], in experiment [2], the maximal effect (Emax) turned out to be 492% and the EC50 was < 1 nM.

As to `CS(=O)(=O)c1ccc(-c2ccc(-c3nc4cc(C[C@H]5CC[C@H](CO)CC5)[nH]c4cc3Cl)cc2)cc1` [Example 24, ((trans)-4-((6-chloro-5-(4′-(methylsulfonyl)-[1,1′-biphenyl]-4-yl)-1H-pyrrolo[3,2-b]pyridin-2-yl)methyl)cyclohexyl)methanol], in experiment [1], the Emax was determined as 256% and the EC50 worked out at 14 nM. Regarding `CS(=O)(=O)c1ccc(-c2ccc(-c3nc4cc(CCCC(=O)O)[nH]c4cc3Cl)cc2)cc1` [Example 22], in experiment [1], the Emax came to 416% and the EC50 came out at 8 nM. As to `O=S1(=O)CCN(c2ccc(-c3nc4cc(O[C@@H]5CO[C@H]6[C@@H]5OC[C@H]6O)[nH]c4cc3Cl)cc2)CC1` [Example 105], in experiment [2], the Emax was determined as 495% and the EC50 amounted to 8 nM. `CS(=O)(=O)c1ccc(-c2ccc(-c3nc4cc(CCCCO)[nH]c4cc3Cl)cc2)cc1` [Example 21]: in experiment [1], the Emax is 590% and the EC50 amounted to 2 nM. As for `OC[C@H]1OC[C@@H](Oc2cc3nc(-c4ccc(-c5ccccc5)cc4)c(Cl)cc3[nH]2)[C@@H]1O` [Example 123], in experiment [2], the Emax is 295% and the half-maximal effective concentration (EC50) is 12 nM. Regarding `OC[C@H]1OC[C@@H](Oc2cc3nc(-c4ccc(C5(CO)CC5)cc4)c(Cl)cc3[nH]2)[C@@H]1O` [Example 124], in experiment [2], the Emax is 305% and the 50% effective concentration (EC50) turned out to be 15 nM. Consider `Cc1c(O[C@@H]2CC[C@H]3[C@@H]2OC[C@H]3O)[nH]c2cc(Cl)c(-c3ccc(-c4ccccc4)cc3)nc12` [Example 138], for which, in experiment [2], the Emax was 486% and the EC50 is 56 nM.

In the case of `Cc1ccc(Oc2cc3nc(-c4ccc(C5(CO)CC5)cc4)c(Cl)cc3[nH]2)cc1P(=O)(O)O` [Example 114, (5-((6-chloro-5-(4-(1-(hydroxymethyl)cyclopropyl)phenyl)-1H-pyrrolo[3,2-b]pyridin-2-yl)oxy)-2-methylphenyl)phosphonic acid], in experiment [2], the Emax came to 333% and the EC50 was < 3 nM.

Source of the values: patent US9650375B2, “Indole derivatives useful as anti-diabetic agents” (Merck Sharp & Dohme Corp., priority 2013, dated 2017).
